Source: patent publication US20210254001A1, “FcyRIIIa signaling generates Bcl6+PD1+CD4+ Tfh-like cells” (priority 2020, published 2021)
Entries after “also recorded” stand apart in the source; their conditions may differ.

Test system: purified human CD4+ T cells
Assay: IL-21 production in IC-treated CD4+ T cells with Syk inhibitor
Type: cell-based
Details: P505 10 nM; cells producing IL-21 from IC treatment; FIG. 4F (A)

NC(=O)c1cnc(N[C@@H]2CCCC[C@@H]2N)nc1Nc1cccc(-n2nccn2)c1 [P505]
IL-21 production: IL-21 production is blocked; also recorded: inhibits IL-21 production
